In US9776972B2, “Pyrazole derivatives as arginine methyltransferase inhibitors and uses thereof” (priority 2013, dated 2017):
Where a name gives a salt, the structure may show the parent alone.

The compounds below were run against T1, Human CARM1 (PRMT4) (Homo sapiens, UniProt Q86X55) (assay: CARM1 Biochemical Assay (3H-SAM Flashplate, peptide substrate)). Settings: single experiment or average of multiple experiments.
T1 construct: Flag-CARM1-His; made in house; host or cells: HEK 293F cells (BacMam baculovirus)
T1 sequence (Q86X55 1-585 isoform Q86X55-1): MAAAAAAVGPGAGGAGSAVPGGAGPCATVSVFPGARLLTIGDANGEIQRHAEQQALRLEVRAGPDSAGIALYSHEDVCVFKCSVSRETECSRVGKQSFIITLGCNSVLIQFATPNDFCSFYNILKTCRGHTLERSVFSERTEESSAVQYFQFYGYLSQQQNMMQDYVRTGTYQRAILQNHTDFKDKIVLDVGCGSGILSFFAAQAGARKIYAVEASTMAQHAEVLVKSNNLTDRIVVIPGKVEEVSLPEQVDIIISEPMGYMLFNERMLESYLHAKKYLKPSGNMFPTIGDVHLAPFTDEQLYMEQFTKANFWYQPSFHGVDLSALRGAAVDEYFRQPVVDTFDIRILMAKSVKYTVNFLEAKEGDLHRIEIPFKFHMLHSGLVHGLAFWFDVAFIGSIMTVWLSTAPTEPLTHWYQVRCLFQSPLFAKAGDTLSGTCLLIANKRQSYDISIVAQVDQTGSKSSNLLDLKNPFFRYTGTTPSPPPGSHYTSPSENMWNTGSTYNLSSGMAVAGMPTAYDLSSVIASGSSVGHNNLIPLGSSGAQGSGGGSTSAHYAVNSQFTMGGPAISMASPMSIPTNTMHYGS
Text: S-adenosylmethionine (SAM), S-adenosylhomocysteine (SAH), bicine, Tween20, dimethylsulfoxide (DMSO), bovine skin gelatin (BSG), sodium butyrate and Tris(2-carboxyethyl)phosphine hydrochloride solution (TCEP) were purchased from Sigma-Aldrich at the highest level of purity possible. ^3H-SAM was purchase from American Radiolabeled Chemicals with a specific activity of 80 Ci/mmol. 384-well streptavidin Flashplates were purchased from PerkinElmer.
Peptide representative of human histone H3 residues 16-30 was synthesized with an N-terminal linker-affinity tag motif and a C-terminal amide cap by 21st Century Biochemicals. […] The sequence was Biot-Ahx-[…]-amide and contained a monomethylated arginine at position 26 (SEQ ID NO.: 14).
Recombinant baculovirus were generated according to Bac-to-Bac kit instructions (Life Technologies). […] Infections were carried out at 37° C. for 48 hours, harvested by centrifugation, and stored at −80° C. for purification.
Column was washed with 500 mM NaCl in buffer A and Flag-CARM1-His was eluted with 200 ug/ml FLAG peptide in buffer A. Pooled fractions were dialyzed in 20 mM Tris, 150 mM NaCl, 5% glycerol and 1 mM DTT, pH 7.8.
General Procedure for CARM1 Enzyme Assays on Peptide Substrates.
The assays were all performed in a buffer consisting of 20 mM Bicine (pH=7.6), 1 mM TCEP, 0.005% BSG, and 0.002% Tween 20, prepared on the day of use. […] DMSO (1 ul) was added to Columns 11, 12, 23, 24, rows A-H for the maximum signal control and 1 ul of SAH, a known product and inhibitor of CARM1, was added to columns 11, 12, 23, 24, rows I-P for the minimum signal control. A cocktail (40 ul) containing the CARM1 enzyme was added by Multidrop Combi (Thermo-Fisher). The compounds were allowed to incubate with CARM1 for 30 min at room temperature, then a cocktail (10 ul) containing ^3H-SAM and peptide was added to initiate the reaction (final volume=51 ul). […] The assays were stopped by the addition of non-radiolabeled SAM (10 ul) to a final concentration of 300 uM, which dilutes the ^3H-SAM to a level where its incorporation into the peptide substrate is no longer detectable. 50 ul of the reaction in the 384-well polypropylene plate was then transferred to a 384-well Flashplate and the biotinylated peptides were allowed to bind to the streptavidin surface for at least 1 hour before being washed once with 0.1% Tween20 in a Biotek ELx405 plate washer. The plates were then read in a PerkinElmer TopCount plate reader to measure the quantity of ^3H-labeled peptide bound to the Flashplate surface, measured as disintegrations per minute (dpm) or alternatively, referred to as counts per minute (cpm).
Where dpm=disintegrations per minute, cmpd=signal in assay well, and min and max are the respective minimum and maximum signal controls.
Where top and bottom are the normally allowed to float, but may be fixed at 100 or 0 respectively in a 3-parameter fit. The Hill Coefficient normally allowed to float but may also be fixed at 1 in a 3-parameter fit. Y is the % inhibition and X is the compound concentration.

| SMILES | IC50 [nM] |
| --- | --- |
| CCCc1ccc(-c2n[nH]cc2CN(C)CCNC)cc1 [Compound 20] | 278 |
| CNCCN(C)Cc1c[nH]nc1-c1cccc([N+](=O)[O-])c1 [Compound 21] | 2090 |
| CNCCN(C)Cc1c[nH]nc1-c1cccc(C#N)c1 [Compound 22] | 1370 |
| CNCCN(C)Cc1c[nH]nc1-c1ccccc1OC [Compound 23] | 1760 |
| CNCCN(C)Cc1c[nH]nc1-c1cccc(OC)c1 [Compound 24] | 1210 |
| CNCCN(C)Cc1c[nH]nc1-c1ccc(OC)cc1 [Compound 25] | 1560 |
| CNCCN(C)Cc1c[nH]nc1-c1cccc(O)c1 [Compound 26] | 2340 |
| CNCCN(C)Cc1c[nH]nc1-c1ccc(O)cc1 [Compound 27] | 1710 |
| CNCCN(C)Cc1c[nH]nc1-c1ccc(CO)cc1 [Compound 28] | 337 |
| CNCCN(C)Cc1c[nH]nc1-c1ccc(C)cc1C [Compound 29] | 6300 |
| CNCCN(C)Cc1cn(CCCC(O)CO)nc1-c1ccc(F)cc1 (stereo not shown) [Compound 30] | 3680 |
| CNCCN(C)Cc1cnn(CCCC(O)CO)c1-c1ccc(F)cc1 (stereo not shown) [Compound 31] | 1840 |
| CNCCN(C)Cc1c[nH]nc1-c1ccc(N)cc1 [Compound 33] | 1380 |
| CNCCN(C)Cc1c[nH]nc1-c1ccc(Oc2ccccc2)cc1 [Compound 37] | 15.2 |
| CCNC(=O)c1cccc(-c2n[nH]cc2CN(C)CCNC)c1 [Compound 43] | 4960 |
| CNCCN(C)Cc1c[nH]nc1-c1ccc(C(=O)c2ccccc2)cc1 [Compound 45] | 42.9 |
| CNCCN(C)Cc1c[nH]nc1-c1ccc(F)cc1F [Compound 49] | 5040 |
| CNCCN(C)Cc1c[nH]nc1-c1cc(F)ccc1F [Compound 50] | 4320 |
| CNCCN(C)Cc1c[nH]nc1-c1ccc(F)c(F)c1 [Compound 51] | 625 |
| CNCCN(C)Cc1c[nH]nc1-c1ccc(OC)c(F)c1 [Compound 52] | 1500 |

| SMILES | IC50 [nM] |
| --- | --- |
| CNCCN(C)Cc1c[nH]nc1-c1ccc(OC)cc1OC [Compound 55] | 4200 |
| CNCCN(C)Cc1c[nH]nc1-c1cccc2ccccc12 [Compound 57] | 1310 |
| CNCCN(C)Cc1c[nH]nc1-c1ccc2ccccc2c1 [Compound 58] | 582 |
| CNCCN(C)Cc1cn(CCC(O)CO)nc1-c1ccc(F)cc1 (stereo not shown) [Compound 59] | 4590 |
| CCN(CCN)Cc1c[nH]nc1-c1ccc(F)cc1 [Compound 62] | 672 |
| CN(CCN)Cc1cnn(CCO)c1-c1ccc(F)cc1 [Compound 65] | 8930 |
| CN(CCN)Cc1cn(CCO)nc1-c1ccc(F)cc1 [Compound 66] | 3790 |
| CN(CCN)Cc1c[nH]nc1-c1ccc(C#N)cc1 [Compound 68] | 802 |
| CNCCN(C)Cc1cn(C)nc1-c1ccc(OC(C)C)cc1 [Compound 243, N^1-((3-(4-isopropoxyphenyl)-1-methyl-1H-pyrazol-4-yl)methyl)-N1,N2-dimethylethane-1,2-diamine] | 301 |
| CNCCN(C)Cc1cn(Cc2cccnc2)nc1-c1ccc(OC(C)C)cc1 [Compound 246] | 2430 |
| CNCCN(C)Cc1cn(Cc2ccccn2)nc1-c1ccc(OC(C)C)cc1 [Compound 247] | 2820 |
| CNCCN(C)Cc1cn(CC(=O)OC)nc1-c1ccc(OC(C)C)cc1 [Compound 248] | 3750 |
| CNCCN(C)Cc1cnn(CC(=O)OC)c1-c1ccc(OC(C)C)cc1 [Compound 249] | 9630 |
| CNCCN(C)Cc1cn(CC(N)=O)nc1-c1ccc(OC(C)C)cc1 [Compound 251] | 2980 |
| CCn1ncc(CN(C)CCNC)c1-c1ccc(OC(C)C)cc1 [Compound 252] | 531 |
| CNCCN(C)Cc1cn(CCOC)nc1-c1ccc(OC(C)C)cc1 [Compound 253, N1-((3-(4-isopropoxyphenyl)-1-(2-methoxyethyl)-1H-pyrazol-4-yl)methyl)-N1,N2-dimethylethane-1,2-diamine hydrochloride] | 2260 |
| CNCCN(C)Cc1cn(C2CCC2)nc1-c1ccc(OC(C)C)cc1 [Compound 254, N1-((1-cyclobutyl-3-(4-isopropoxyphenyl)-1H-pyrazol-4-yl)methyl)-N1,N2-dimethylethane-1,2-diamine hydrochloride] | 413 |
| CNCCN(C)Cc1cnn(C2CCCC2)c1-c1ccc(OC(C)C)cc1 [Compound 255] | 1170 |
| CNCCN(C)Cc1cn(C2CCCCC2)nc1-c1ccc(OC(C)C)cc1 [Compound 256] | 571 |
| C=CC(=O)Nc1cccc(-c2[nH]ncc2CN(C)CCNC)c1 [Compound 258] | 1700 |
